Source: patent US20260224588A1, “BENZODIAZEPINONE-DERIVED INHIBITORS OF EGFR AND HER2” (The Research Foundation for the State University of New York, priority 2023, published 2026)

How the values were obtained:
Assay in all cases: KINOMEscan
Type in all cases: binding
Settings in all cases: 1 μM of compound 4; read-out: POC
PRKCQ = PRKCQ (Homo sapiens, UniProt Q04759)
ACVR1 = molecular target: T1, ACVR1 (Homo sapiens, UniProt Q04771)
T1 construct: purchased Eurofins DiscoverX Corporation

PLK4 = PLK4 (Homo sapiens, UniProt O00444)
MAP4K3 = MAP4K3 (Homo sapiens, UniProt Q8IVH8)
MAP3K3 = MAP3K3 (Homo sapiens, UniProt Q99759)
[1] = molecular target: T2, ABL1(Y253F)-phosphorylated (Homo sapiens, UniProt P00519, Y253F)
T2 construct: purchased Eurofins DiscoverX Corporation

CTK = CTK (Homo sapiens, UniProt P42679)
KIT(L576P) = KIT(L576P) (Homo sapiens, UniProt P10721, L576P)
DCAMKL3 = DCAMKL3 (Homo sapiens, UniProt Q9C098)
MLCK = MLCK (Homo sapiens, UniProt Q32MK0)
EPHA7 = molecular target: T3, EPHA7 (Homo sapiens, UniProt Q15375)
T3 construct: purchased Eurofins DiscoverX (KINOMEscan service)

WNK4 = molecular target: T4, WNK4 (Homo sapiens, UniProt Q96J92)
T4 construct: purchased Eurofins DiscoverX

RET(M918T) = molecular target: T5, RET(M918T) (Homo sapiens, UniProt P07949, M918T)
T5 construct: purchased Eurofins DiscoverX Corporation (KINOMEscan screening service)

FRK = molecular target: T6, FRK (Homo sapiens, UniProt P42685)
T6 construct: purchased Eurofins DiscoverX Corporation

PFTK1 = PFTK1 (Homo sapiens, UniProt O94921)
CDK4-cyclinD1 = CDK4-cyclinD1 (Homo sapiens, UniProt P11802)
BRAF = BRAF (Homo sapiens, UniProt P15056)
RIOK3 = molecular target: T7, RIOK3 (Homo sapiens, UniProt O14730)
T7 construct: purchased Eurofins DiscoverX Corporation (KINOMEscan screening service)

HIPK2 = molecular target: T8, HIPK2 (Homo sapiens, UniProt Q9H2X6)
T8 construct: purchased Eurofins DiscoverX Corporation

PDGFRA = molecular target: T9, PDGFRA (Homo sapiens, UniProt P16234)
T9 construct: purchased Eurofins DiscoverX Corporation (KINOMEscan)

NLK = molecular target: T10, NLK (Homo sapiens, UniProt Q9UBE8)
T10 construct: purchased Eurofins DiscoverX Corporation (KINOMEscan)

S6K1 = molecular target: T11, S6K1 (Homo sapiens, UniProt P23443)
T11 construct: purchased Eurofins DiscoverX (KINOMEscan service)

PIM2 = PIM2 (Homo sapiens, UniProt Q9P1W9)
MEK3 = MEK3 (Homo sapiens, UniProt P46734)
MYLK4 = MYLK4 (Homo sapiens, UniProt Q86YV6)
ICK = ICK (Homo sapiens, UniProt Q9UPZ9)
WNK1 = molecular target: T12, WNK1 (Homo sapiens, UniProt Q9H4A3)
T12 construct: purchased Eurofins DiscoverX

BMPR1B = BMPR1B (Homo sapiens, UniProt O00238)
RIPK1 = molecular target: T13, RIPK1 (Homo sapiens, UniProt Q13546)
T13 construct: purchased Eurofins DiscoverX Corporation (KINOMEscan screening service)

SgK110 = molecular target: T14, SgK110 (Homo sapiens, UniProt P0C264)
T14 construct: purchased Eurofins DiscoverX (KINOMEscan service)

BRSK2 = BRSK2 (Homo sapiens, UniProt Q8IWQ3)
LIMK1 = LIMK1 (Homo sapiens, UniProt P53667)
CSNK1G3 = CSNK1G3 (Homo sapiens, UniProt Q9Y6M4)
MUSK = MUSK (Homo sapiens, UniProt O15146)
FGFR4 = molecular target: T15, FGFR4 (Homo sapiens, UniProt P22455)
T15 construct: purchased Eurofins DiscoverX Corporation

IRAK4 = IRAK4 (Homo sapiens, UniProt Q9NWZ3)
ACVR1B = molecular target: T16, ACVR1B (Homo sapiens, UniProt P36896)
T16 construct: purchased Eurofins DiscoverX Corporation

SBK1 = molecular target: T17, SBK1 (Homo sapiens, UniProt Q52WX2)
T17 construct: purchased Eurofins DiscoverX (KINOMEscan service)

BMX = BMX (Homo sapiens, UniProt P51813)
LRRK2(G2019S) = LRRK2(G2019S) (Homo sapiens, UniProt Q5S007, G2019S)

T7 sequence (O14730 whole entry): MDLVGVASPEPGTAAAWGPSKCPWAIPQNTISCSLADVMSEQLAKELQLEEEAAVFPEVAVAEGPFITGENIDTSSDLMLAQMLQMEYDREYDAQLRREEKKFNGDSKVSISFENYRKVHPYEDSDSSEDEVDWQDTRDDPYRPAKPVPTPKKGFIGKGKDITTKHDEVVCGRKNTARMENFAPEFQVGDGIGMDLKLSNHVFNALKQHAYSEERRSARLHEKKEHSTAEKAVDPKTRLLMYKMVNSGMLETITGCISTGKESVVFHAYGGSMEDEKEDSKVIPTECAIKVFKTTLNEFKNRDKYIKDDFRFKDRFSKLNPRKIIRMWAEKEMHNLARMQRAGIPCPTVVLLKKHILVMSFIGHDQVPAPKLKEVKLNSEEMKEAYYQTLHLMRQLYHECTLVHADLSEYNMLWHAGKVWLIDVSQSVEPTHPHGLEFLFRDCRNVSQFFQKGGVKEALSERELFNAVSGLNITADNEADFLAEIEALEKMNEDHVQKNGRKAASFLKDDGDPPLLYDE
CSNK1G3, sequence (Q9Y6M4 whole entry): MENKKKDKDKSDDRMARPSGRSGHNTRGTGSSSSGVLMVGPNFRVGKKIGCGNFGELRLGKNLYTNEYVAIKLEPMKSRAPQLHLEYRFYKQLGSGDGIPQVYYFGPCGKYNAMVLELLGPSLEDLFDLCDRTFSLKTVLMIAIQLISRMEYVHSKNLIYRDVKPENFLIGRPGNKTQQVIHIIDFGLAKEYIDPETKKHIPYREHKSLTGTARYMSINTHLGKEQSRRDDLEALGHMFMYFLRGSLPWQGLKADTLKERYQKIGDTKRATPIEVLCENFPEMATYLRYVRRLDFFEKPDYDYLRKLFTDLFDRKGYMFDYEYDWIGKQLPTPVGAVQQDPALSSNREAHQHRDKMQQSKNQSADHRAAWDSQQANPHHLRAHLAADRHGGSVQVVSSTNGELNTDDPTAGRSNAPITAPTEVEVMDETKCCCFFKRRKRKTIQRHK
T8 sequence (Q9H2X6 whole entry): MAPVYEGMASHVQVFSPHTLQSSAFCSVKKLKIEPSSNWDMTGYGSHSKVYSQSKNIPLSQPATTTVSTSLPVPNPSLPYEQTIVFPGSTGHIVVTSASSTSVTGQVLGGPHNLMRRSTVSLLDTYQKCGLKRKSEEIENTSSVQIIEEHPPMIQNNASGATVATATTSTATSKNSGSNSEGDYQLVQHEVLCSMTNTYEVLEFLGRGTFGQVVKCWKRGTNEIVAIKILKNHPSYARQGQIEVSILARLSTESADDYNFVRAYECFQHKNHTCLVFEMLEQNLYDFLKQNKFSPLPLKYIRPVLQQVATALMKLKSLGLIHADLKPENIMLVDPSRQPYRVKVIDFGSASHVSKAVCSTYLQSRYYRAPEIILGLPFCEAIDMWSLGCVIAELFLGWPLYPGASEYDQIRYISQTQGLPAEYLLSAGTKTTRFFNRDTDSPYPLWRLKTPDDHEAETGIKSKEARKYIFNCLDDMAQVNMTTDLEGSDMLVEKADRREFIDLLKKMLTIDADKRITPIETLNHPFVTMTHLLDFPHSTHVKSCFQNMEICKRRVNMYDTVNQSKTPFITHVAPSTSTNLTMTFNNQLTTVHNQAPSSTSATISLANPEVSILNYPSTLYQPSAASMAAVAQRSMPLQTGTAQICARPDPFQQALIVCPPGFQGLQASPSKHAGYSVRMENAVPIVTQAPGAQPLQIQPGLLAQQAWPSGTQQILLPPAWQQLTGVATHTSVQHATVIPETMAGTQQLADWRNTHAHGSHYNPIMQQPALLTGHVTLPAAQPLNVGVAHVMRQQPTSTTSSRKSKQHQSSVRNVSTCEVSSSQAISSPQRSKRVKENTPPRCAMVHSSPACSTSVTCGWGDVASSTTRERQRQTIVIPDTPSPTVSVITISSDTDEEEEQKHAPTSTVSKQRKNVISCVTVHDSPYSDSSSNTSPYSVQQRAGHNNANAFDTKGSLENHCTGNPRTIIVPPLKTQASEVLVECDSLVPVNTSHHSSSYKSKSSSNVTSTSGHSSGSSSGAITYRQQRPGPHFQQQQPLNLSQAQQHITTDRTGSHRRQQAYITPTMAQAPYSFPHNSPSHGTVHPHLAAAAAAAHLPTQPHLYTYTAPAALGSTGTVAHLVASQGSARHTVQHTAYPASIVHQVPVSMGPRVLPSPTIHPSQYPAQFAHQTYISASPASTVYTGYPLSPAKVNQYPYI
MLCK, sequence (Q32MK0 whole entry): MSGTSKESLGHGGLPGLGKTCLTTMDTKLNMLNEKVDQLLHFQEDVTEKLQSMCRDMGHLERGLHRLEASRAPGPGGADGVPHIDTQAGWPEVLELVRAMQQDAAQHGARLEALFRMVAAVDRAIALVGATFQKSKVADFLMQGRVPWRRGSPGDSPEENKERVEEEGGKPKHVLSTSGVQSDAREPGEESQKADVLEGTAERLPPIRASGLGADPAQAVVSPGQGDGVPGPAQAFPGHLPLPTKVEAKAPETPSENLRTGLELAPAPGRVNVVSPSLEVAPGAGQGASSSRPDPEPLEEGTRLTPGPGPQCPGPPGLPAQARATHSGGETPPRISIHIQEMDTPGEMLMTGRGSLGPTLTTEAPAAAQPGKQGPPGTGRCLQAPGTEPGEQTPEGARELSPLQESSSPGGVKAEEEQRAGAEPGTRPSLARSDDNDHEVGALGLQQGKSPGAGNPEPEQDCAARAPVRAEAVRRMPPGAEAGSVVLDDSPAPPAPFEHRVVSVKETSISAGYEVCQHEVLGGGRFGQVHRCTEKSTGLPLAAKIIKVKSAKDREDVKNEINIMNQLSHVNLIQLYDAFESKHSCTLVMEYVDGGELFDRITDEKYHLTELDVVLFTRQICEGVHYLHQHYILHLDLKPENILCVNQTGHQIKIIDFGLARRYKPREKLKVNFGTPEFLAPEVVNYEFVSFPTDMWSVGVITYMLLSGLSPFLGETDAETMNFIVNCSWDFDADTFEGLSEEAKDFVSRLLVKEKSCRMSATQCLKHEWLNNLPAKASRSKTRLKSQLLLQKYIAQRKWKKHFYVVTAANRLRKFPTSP
MYLK4, sequence (Q86YV6 whole entry): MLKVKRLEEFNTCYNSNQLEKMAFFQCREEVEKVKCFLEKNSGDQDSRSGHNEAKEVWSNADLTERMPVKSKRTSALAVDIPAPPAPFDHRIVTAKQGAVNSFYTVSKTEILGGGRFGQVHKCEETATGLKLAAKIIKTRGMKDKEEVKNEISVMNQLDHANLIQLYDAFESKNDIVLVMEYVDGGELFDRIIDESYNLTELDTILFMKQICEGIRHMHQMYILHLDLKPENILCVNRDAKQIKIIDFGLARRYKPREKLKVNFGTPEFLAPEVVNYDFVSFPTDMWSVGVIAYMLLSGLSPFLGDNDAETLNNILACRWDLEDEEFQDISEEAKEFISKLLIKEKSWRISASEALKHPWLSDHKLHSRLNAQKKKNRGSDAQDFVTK
T6 sequence (P42685 whole entry): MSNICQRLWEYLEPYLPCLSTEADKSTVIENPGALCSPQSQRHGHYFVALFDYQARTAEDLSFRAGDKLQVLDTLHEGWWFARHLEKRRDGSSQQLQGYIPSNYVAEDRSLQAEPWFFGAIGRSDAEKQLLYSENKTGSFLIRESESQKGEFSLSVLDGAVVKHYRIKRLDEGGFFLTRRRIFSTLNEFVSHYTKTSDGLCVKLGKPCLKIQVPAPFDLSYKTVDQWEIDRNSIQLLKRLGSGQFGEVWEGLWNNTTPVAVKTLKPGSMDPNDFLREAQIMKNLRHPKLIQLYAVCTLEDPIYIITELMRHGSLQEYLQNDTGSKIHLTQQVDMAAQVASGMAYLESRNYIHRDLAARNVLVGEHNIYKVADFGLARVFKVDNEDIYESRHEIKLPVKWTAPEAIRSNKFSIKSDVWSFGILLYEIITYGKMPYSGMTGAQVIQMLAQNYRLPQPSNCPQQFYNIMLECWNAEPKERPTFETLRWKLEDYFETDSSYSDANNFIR
T11 sequence (P23443 whole entry): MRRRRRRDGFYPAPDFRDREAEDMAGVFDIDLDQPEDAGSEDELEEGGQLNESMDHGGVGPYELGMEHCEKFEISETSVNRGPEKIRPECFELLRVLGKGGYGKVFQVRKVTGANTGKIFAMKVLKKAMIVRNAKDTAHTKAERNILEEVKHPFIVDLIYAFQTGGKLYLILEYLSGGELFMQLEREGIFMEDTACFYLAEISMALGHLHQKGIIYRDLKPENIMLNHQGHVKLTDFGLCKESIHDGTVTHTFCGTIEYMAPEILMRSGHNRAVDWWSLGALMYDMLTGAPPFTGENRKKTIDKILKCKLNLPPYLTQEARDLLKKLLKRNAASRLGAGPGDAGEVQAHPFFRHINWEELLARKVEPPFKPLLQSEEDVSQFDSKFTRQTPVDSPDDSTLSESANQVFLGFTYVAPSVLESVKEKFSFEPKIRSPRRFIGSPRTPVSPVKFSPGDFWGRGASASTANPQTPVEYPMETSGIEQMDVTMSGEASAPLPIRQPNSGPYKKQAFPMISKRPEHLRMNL
T10 sequence (Q9UBE8 whole entry): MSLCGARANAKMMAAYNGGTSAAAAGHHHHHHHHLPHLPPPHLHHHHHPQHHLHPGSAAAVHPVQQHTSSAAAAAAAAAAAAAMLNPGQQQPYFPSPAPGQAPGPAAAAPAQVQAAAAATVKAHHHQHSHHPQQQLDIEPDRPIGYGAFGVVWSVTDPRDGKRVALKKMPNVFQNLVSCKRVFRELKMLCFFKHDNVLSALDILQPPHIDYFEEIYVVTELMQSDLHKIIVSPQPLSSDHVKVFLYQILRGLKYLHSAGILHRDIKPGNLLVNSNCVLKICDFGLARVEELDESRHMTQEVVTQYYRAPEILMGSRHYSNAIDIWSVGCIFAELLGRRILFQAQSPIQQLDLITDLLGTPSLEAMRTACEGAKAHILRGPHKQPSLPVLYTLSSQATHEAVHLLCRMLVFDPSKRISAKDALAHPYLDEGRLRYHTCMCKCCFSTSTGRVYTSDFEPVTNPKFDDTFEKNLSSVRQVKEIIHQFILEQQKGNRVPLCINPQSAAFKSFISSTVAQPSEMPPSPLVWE

## C=CC(=O)Nc1ccc(OC)c(Nc2cc(-c3[nH]c(CC)nc3-c3cccc(NC(=O)c4cccc5c4NC(=O)c4ccccc4N5)c3)ccn2)c1 [Compound 4, N-(3-(5-(2-((5-Acrylamido-2-methoxyphenyl)amino)pyridin-4-yl)-2-ethyl-1H-imidazol-4-yl)phenyl)-11-oxo-10,11-dihydro-5H-dibenzo[b,e][1,4]diazepine-9-carboxamide]
PRKCQ
  remaining binding at 1 µM: 18%
ACVR1
  remaining binding at 1 µM: 96%
PLK4
  remaining binding at 1 µM: 71%
MAP4K3
  remaining binding at 1 µM: 9.5%
MAP3K3
  remaining binding at 1 µM: 51%
[1]
  remaining binding at 1 µM: 72%
CTK
  remaining binding at 1 µM: 54%
KIT(L576P)
  remaining binding at 1 µM: 84%
DCAMKL3
  remaining binding at 1 µM: 86%
MLCK
  remaining binding at 1 µM: 86%
EPHA7
  remaining binding at 1 µM: 100%
WNK4
  remaining binding at 1 µM: 85%
RET(M918T)
  remaining binding at 1 µM: 99%
FRK
  remaining binding at 1 µM: 20%
PFTK1
  remaining binding at 1 µM: 90%
CDK4-cyclinD1
  remaining binding at 1 µM: 94%
BRAF
  remaining binding at 1 µM: 90%
RIOK3
  remaining binding at 1 µM: 100%
HIPK2
  remaining binding at 1 µM: 100%
PDGFRA
  remaining binding at 1 µM: 69%
NLK
  remaining binding at 1 µM: 48%
S6K1
  remaining binding at 1 µM: 100%
PIM2
  remaining binding at 1 µM: 88%
MEK3
  remaining binding at 1 µM: 100%
MYLK4
  remaining binding at 1 µM: 95%
ICK
  remaining binding at 1 µM: 100%
WNK1
  remaining binding at 1 µM: 100%
BMPR1B
  remaining binding at 1 µM: 100%
RIPK1
  remaining binding at 1 µM: 100%
SgK110
  remaining binding at 1 µM: 100%
BRSK2
  remaining binding at 1 µM: 93%
LIMK1
  remaining binding at 1 µM: 79%
CSNK1G3
  remaining binding at 1 µM: 98%
MUSK
  remaining binding at 1 µM: 100%
FGFR4
  remaining binding at 1 µM: 100%
IRAK4
  remaining binding at 1 µM: 43%
ACVR1B
  remaining binding at 1 µM: 85%
SBK1
  remaining binding at 1 µM: 84%
BMX
  remaining binding at 1 µM: 66%
LRRK2(G2019S)
  remaining binding at 1 µM: 100%
